Measured values taken from patent US9333202B2, “Non-retinoid antagonists for treatment of age-related macular degeneration and stargardt disease” (THE TRUSTEES OF COLUMBIA UNIVERSITY IN THE CITY OF NEW YORK, priority 2012, dated 2016).

Tests used:
[1] = Observation of toxicity signs during 6 week chronic dosing; assay type: in vivo; details: 6 week-long chronic dosing, 30 mg/kg daily oral
Protocol: Ten week-old Abca4 null mutant mice (129/SV×C57BL/6J) bred as previously described were used in the study. Abca4−/− (knockout) and Abca4+/+(wild-type) mice were raised under 12 h on-off cyclic lighting with an in-cage illuminance of 30-50 lux. For long-term oral dosing A1120 was formulated into Purina 5035 rodent chow at Research Diets, Inc. (New Brunswick, N.J.) to ensure consistent 30 mg/kg daily oral dosing. Animals were administered the A1120-containing chow for 6 weeks.
To determine whether A1120 has an effect on retinal production of lipofuscin fluorophores we administered the compound at the daily 30 mg/kg dose to Abca4−/− mice for a period of 6 weeks. Blood samples collected from the treatment and control groups at baseline, Day 21 and Day 42 were used to measure serum RBP4 in order to correlate RBP4 levels with reduction in formation of lipofuscin bisretinoids. […] Levels of lipofuscin fluorophores (A2E, A2-DHP-PE and all-trans-retinal dimer-PE) were determined at the end of the 42-day treatment period using quantitative HPLC.
Administration of A1120 reduces the production of A2E, A2-DHP-PE, and atRAL di-PE in A1120-treated Abca4−/− mice in comparison to the vehicle-treated Abca4−/− animals by approximately 50%.

RBP4-TTR interaction = RBP4-TTR interaction (Homo sapiens, UniProt P02753); assay: TR-FRET (HTRF) assay for antagonists of retinol-induced RBP4-TTR interaction, agonist and antagonist mode (Example 2); assay type: biochemical; set-up: made in house; host or cells: E. coli; details: agonist mode, dose titration
Text: TR-FRET (Time-Resolved Fluorescence Resonance Energy Transfer) is an assay format that can be used in characterization of compounds affecting protein-protein interactions (31-33). […] In the presence of retinol, RBP4-TTR interaction induces FRET that can be registered as increased ratio of […] fluorescence signals. Binding of a desired RBP4 antagonist displaces retinol and induces hindrance for RBP4-TTR interaction resulting in the decreased FRET signal (FIG. 7).
The assay was developed using E. coli-expressed MBP-tagged RBP4 and commercially available TTR labeled directly with Eu3+ cryptate. In addition to MBP-RBP4 and Eu3+ (K)-TTR, a detector reagent anti-MBP-d2 was present in the mix. The assay was first optimized in the agonist mode; sensitivity and dynamic range of the assay was […] in respect to RBP4, TTR and detection reagent concentrations.

[2] = test system: lipofuscin bisretinoids (A2E, A2-DHP-PE, atRAL di-PE); assay: Bisretinoid (lipofuscin fluorophore) levels in eyecups of Abca4−/− mice by HPLC; assay type: in vivo, mouse
Text: The Abca4−/− mouse model manifests accelerated accumulation of lipofuscin in the RPE and is considered a pre-clinical efficacy model for a drug reducing lipofuscin accumulation. […] There was approximately a 70% reduction in the serum RBP4 level in treated animals (FIG. 11). Additionally, it was discovered that that the levels of A2E/isoA2E and other bisretinoids were reduced by approximately 50% in treated mice (FIG. 12).
Abca4/Abcr null mutant mice (albino) homozygous for Rpe65-Leu450 are bred genotyped and housed. Posterior eyecups of mice and RPE/choroids harvested from human donor eyes (National Disease Research Interchange, Philadelphia Pa.) are homogenized in phosphate buffered saline (PBS) using a glass tissue grinder and extracted in chloroform/methanol (2:1). Extracts are subsequently filtered through cotton and passed through a reverse phase cartridge (C8 Sep-Pak, Millipore) with 0.1% TFA (Aldrich Chemical Company, Milwaukee, Wis.) in methanol. […] An Alliance system (Waters, Corp, Milford, Mass.) equipped with 2695 Separation Module, 2996 Photodiode Array Detector, a 2475 Multi λ Fluorescence Detector and operating with Empower® software is used for HPLC analysis. […] HPLC quantification is carried out using the Empower® software to determine peak areas. […] Molar quantity per murine eye is determined using calibration curves constructed from known concentrations of purified external standards and by normalizing to the ratio of the HPLC injection volume (10 μL) versus total extract volume. […]
Following euthanasia, posterior eye cups were pooled and homogenized in PBS using a tissue grinder. […] For quantification of bisretinoids of RPE lipofuscin, a Waters Alliance 2695 HPLC system was employed with an Atlantis dC18 column (Waters, 4.6 mm×150 mm, 3 μm) and the following gradient of acetonitrile in water (containing 0.1% trifluoroacetic acid): 90 to 100% from 0 to 10 min and 100% acetonitrile from 10 to 20 min, with a flow rate of 0.8 mL/min with monitoring at 430 nm. […] Levels of bisretinoid were determined by reference to external standards of HPLC-purified compound. […]

insulin sensitivity = details: mouse diabetes models; cited from earlier work
[3] = treated mice, oral 30 mg/kg (Example 3)

SMILES: O=C(O)c1ccccc1NC(=O)N1CCC(c2ccccc2C(F)(F)F)CC1 [Compound 1, 2(4-(2-(trifluoromethyl)phenyl)piperidine-1-carboxamido)benzoic acid]
- Signs of compound toxicity such as weight loss or reduction in food consumption [1]: did not note any obvious signs of compound toxicity
- Induction of RBP4-TTR interaction (RBP4-TTR interaction): did not induce RBP4-TTR interaction
- Effect on bisretinoid accumulation (in words) ([2]; Abca4−/− mouse model of excessive lipofuscinogenesis): inhibits bisretinoid accumulation
- Levels of A2-DHP-PE and atRAL di-PE [2, 3]: also reduced
- Reduction of levels of A2E/isoA2E and other bisretinoids [2, 3]: approximately 50%
- Effect on insulin sensitivity (insulin sensitivity): did not improve insulin sensitivity
